Assay results: patent publication US20190002436A1, “RESPIRATORY SYNCYTIAL VIRUS INHIBITORS” (MEDIVIR AB, priority 2015, published 2019)

The compounds below were run on RSV (Long) (assay: RSV cytopathic effect (CPE)-based viral replication assay). Details: human respiratory syncytial virus, HEp-2, 72 h, HEp-2 cells infected with RSV Long at MOI 0.015; 3 days at 37° C.; cell viability by CellTiter-Glo luminescence; read-out: EC50 (nm).
Type: cell-based, respiratory syncytial virus (RSV)
How it was run: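 HEp-2 cells, 2,500 per well in DMEM with 2% heat-inactivated FBS, treated with 10-point compound dilutions and infected with RSV Long at MOI 0.015. After 3 days at 37 °C, 5% CO2, viability read by CellTiter-Glo luminescence; EC50 derived from CPE data.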
`COC(=O)N1CC2(C1)C(=O)N(Cc1ncc3ccccc3c1-c1ccc(N)nc1)c1ccccc12` [Example 104, methyl 1′-((4-(6-aminopyridin-3-yl)isoquinolin-3-yl)methyl)-2′-oxospiro[azetidine-3,3′-indoline]-1-carboxylate] showed an EC50 of 1.5 nM. Compound `NCCCC(=O)N1CC2(C1)C(=O)N(Cc1ncc3ccccc3c1-c1cccnc1)c1ccccc12` [Example 151, 1-(4-Aminobutanoyl)-1′-((4-(pyridin-3-yl)isoquinolin-3-yl)methyl)spiro[azetidine-3,3′-indolin]-2′-one] has an EC50 of 2.7 nM. Work on `NC(=O)N1CC2(C1)C(=O)N(Cc1ncc3ccccc3c1CCCCO)c1ccccc12` [Example 55, 1′-((4-(4-hydroxybutyl)isoquinolin-3-yl)methyl)-2′-oxospiro[azetidine-3,3′-indoline]-1-carboxamide] yielded an EC50 of 4.6 nM. For `NC1(C(=O)N2CCC3(CC2)C(=O)N(Cc2ncc4ccccc4c2-c2cncc(F)c2)c2cnccc23)CC1` [Example 106c, 1-(1-aminocyclopropanecarbonyl)-1′-((4-(5-fluoropyridin-3-yl)isoquinolin-3-yl)methyl)spiro[piperidine-4,3′-pyrrolo[2,3-c]pyridin]-2′(1′H)-one], the EC50 was 3.7 nM. `COC(=O)N1CCC(n2c(=O)n(Cc3ncc4cc(CN)ccc4c3CCCCO)c3cnccc32)CC1` [Example 24, Methyl 4-(3-((7-(aminomethyl)-4-(4-hydroxybutyl)isoquinolin-3-yl)methyl)-2-oxo-2,3-dihydro-1H-imidazo[4,5-c]pyridin-1-yl)piperidine-1-carboxylate] showed an EC50 of 2.4 nM. With `NC1(C(=O)N2CCC3(CC2)C(=O)N(Cc2ncc4ccccc4c2-c2ncco2)c2cnccc23)CC1` [Example 2021] the EC50 was 690 nM. For `CC1(S(=O)(=O)N2CCC3(CC2)C(=O)N(Cc2ncc4ccccc4c2CCCCO)c2cnccc23)CC1` [Example 54, 1′-((4-(4-hydroxybutyl)isoquinolin-3-yl)methyl)-1-((1-methylcyclopropyl)sulfonyl)spiro[piperidine-4,3′-pyrrolo[2,3-c]pyridin]-2′(1′H)-one], the EC50 was 6 nM. With `N#Cc1ccc(-c2c(CN3C(=O)C4(CCN(C(=O)OCCO)CC4)c4ccncc43)ncc3ccccc23)cn1` [Example 68, 2-hydroxyethyl 1′-((4-(6-cyanopyridin-3-yl)isoquinolin-3-yl)methyl)-2′-oxo-1′,2′-dihydrospiro[piperidine-4,3′-pyrrolo[2,3-c]pyridine]-1-carboxylate] the EC50 was 2.5 nM. In the case of `CN(C)C(=O)c1ccc(-c2c(CN3C(=O)C4(CN(C(=O)C5(N)CC5)C4)c4ccccc43)ncc3ccccc23)cn1` [Example 121b, 5-(3-((1-(1-Aminocyclopropanecarbonyl)-2′-oxospiro[azetidine-3,3′-indolin]-1′-yl)methyl)isoquinolin-4-yl)-N,N-dimethylpicolinamide], the EC50 is reported as 2.4 nM. In the case of `CS(=O)(=O)N1CCC2(CC1)C(=O)N(Cc1ncc3cc(Cl)ccc3c1-c1cncs1)c1ccccc12` [Example 169b, 1-((7-chloro-4-(thiazol-5-yl)isoquinolin-3-yl)methyl)-1′-(methylsulfonyl)spiro[indoline-3,4′-piperidin]-2-one], the EC50 is reported as 1.3 nM. Work on `COC(=O)N1CCC(n2c(=O)n(Cc3ncc4cccc(F)c4c3CCCCO)c3cnccc32)CC1` [Example 30, Methyl 4-(3-((5-fluoro-4-(4-hydroxybutyl)isoquinolin-3-yl)methyl)-2-oxo-2,3-dihydro-1H-imidazo[4,5-c]pyridin-1-yl)piperidine-1-carboxylate] yielded an EC50 of 18 nM. With `CNC(=O)O[C@H]1C[C@@]2(C1)C(=O)N(Cc1ncc3ccccc3c1-c1ccc(C#N)nc1)c1ccccc12` [Example 133, (1R,3R)-1′-((4-(6-cyanopyridin-3-yl)isoquinolin-3-yl)methyl)-2′-oxospiro[cyclobutane-1,3′-indolin]-3-yl methylcarbamate] the EC50 was 3.4 nM. Compound `COC(=O)N1CCC(n2c(=O)n(Cc3ncc4ccccc4c3CCCCO)c3cc(F)c(F)cc32)CC1` [Example 14c, methyl 4-(5,6-difluoro-3-((4-(4-hydroxybutyl)isoquinolin-3-yl)methyl)-2-oxo-2,3-dihydro-1H-benzo[d]imidazol-1-yl)piperidine-1-carboxylate] has an EC50 of 75 nM. With `O=C1N(Cc2ncc3ccccc3c2CCCCO)c2cnccc2C12CC2` [Example 49, 1′-((4-(4-hydroxybutyl)isoquinolin-3-yl)methyl)spiro[cyclopropane-1,3′-pyrrolo[2,3-c]pyridin]-2′(1′H)-one] the EC50 was 18 nM. `CC1(n2c(=O)n(Cc3ncc4ccccc4c3-c3ccc(C4(N)COC4)nc3)c3cnccc32)CC1` [Example 2022] was tested, and the EC50 was 19 nM. Work on `COC(=O)N1CC2(C1)C(=O)N(Cc1ncc3ccccc3c1-c1ccc(NS(C)(=O)=O)nc1)c1cnccc12` [Example 167d, methyl 1′-((4-(6-(methylsulfonamido)pyridin-3-yl)isoquinolin-3-yl)methyl)-2′-oxo-1′,2′-dihydrospiro[azetidine-3,3′-pyrrolo[2,3-c]pyridine]-1-carboxylate] yielded an EC50 of 4.8 nM. In the case of `O=c1n(Cc2ncc3ccccc3c2CCCCO)c2cnccc2n1-c1ccc(F)cc1` [Example 4c, 1-(4-fluorophenyl)-3-((4-(4-hydroxybutyl)isoquinolin-3-yl)methyl)-1H-imidazo[4,5-c]pyridin-2(3H)-one], the EC50 is reported as 20 nM. `NC(=O)N1CC2(C1)C(=O)N(Cc1ncc3ccccc3c1-c1ccc(S(N)(=O)=O)cc1)c1ccccc12` [Example 116b, 2′-oxo-1′-((4-(4-sulfamoylphenyl)isoquinolin-3-yl)methyl)spiro[azetidine-3,3′-indoline]-1-carboxamide] was tested, and the EC50 was 1.3 nM. With `NC(=O)c1ccc(-c2c(CN3C(=O)C4(CCN(C(=O)[C@@H](N)CO)CC4)c4ccncc43)ncc3ccccc23)cn1` [Example 2032] the EC50 was 2.7 nM. `CNC1(C(=O)N2CC3(C2)C(=O)N(Cc2ncc4ccccc4c2-c2ccc(S(N)(=O)=O)nc2)c2ccccc23)CC1` [Example 123b, 5-(3-((1-(1-(methylamino)cyclopropanecarbonyl)-2′-oxospiro[azetidine-3,3′-indolin]-1′-yl)methyl)isoquinolin-4-yl)pyridine-2-sulfonamide] showed an EC50 of 15 nM. `NC(C(=O)N1CCC2(CC1)C(=O)N(Cc1ncc3ccccc3c1-c1cncs1)c1cnccc12)C(F)(F)F` (stereo not shown) [Example 2040] was tested, and the EC50 was 1.9 nM. `CC(=O)N1CCC2(CC1)C(=O)N(Cc1ncc3ccccc3c1-c1cccnc1)c1cnccc12` [Example 146b, 1-Acetyl-1′-((4-(pyridin-3-yl)isoquinolin-3-yl)methyl)spiro[piperidine-4,3′-pyrrolo[2,3-c]pyridin]-2′(1′H)-one] showed an EC50 of 2.8 nM. For `CS(=O)(=O)N1CC2(C1)C(=O)N(Cc1ncc3ccccc3c1-c1ccc(F)c(F)c1)c1ccccc12` [Example 75], the EC50 was 7.1 nM. `CS(=O)(=O)N1CC2(C1)C(=O)N(Cc1ncc3ccccc3c1CCCCO)c1ccccc12` [Example 42, 1′-((4-(4-Hydroxybutyl)isoquinolin-3-yl)methyl)-1-(methylsulfonyl)spiro[azetidine-3,3′-indolin]-2′-one] showed an EC50 of 4.6 nM. For `COC(=O)N1CC2(C1)C(=O)N(Cc1ncc3ccccc3c1-c1ccnc(F)c1)c1ccccc12` [Example 95b, Methyl 1′-((4-(2-fluoropyridin-4-yl)isoquinolin-3-yl)methyl)-2′-oxospiro[azetidine-3,3′-indoline]-1-carboxylate], the EC50 was 1.8 nM.
